# Several values for one entry are separate records, joined by “and”; a condition that tells them apart may be missing. Identical values can stand only once. Ends that are not written are not given here.
# Assays:
# [1] = tested on: Salmonella enterica serovar Typhimurium UK1; assay: Agarose gel diffusion assay, purified peptide; format: cell-based; settings: purified peptide 60 µM
# Procedure: (§1) Agarose-based deferred antagonism assays were carried out as follows: GM17/LB (0.03%) underlay was prepared with 10 mM sodium phosphate buffer (SPB) at pH 7.4 to which was added agarose (1% w/v agarose), autoclaved and cooled to 50°C. Bacteria grown to mid-logarithmic phase were harvested by centrifugation and washed with 10 mM SPB at pH 7.4. Bacteria were then added to 15 mls cooled underlay medium to reach a concentration of 2×10^7 colony-forming units (CFU)/mL. The inoculated medium was rapidly transferred into sterile Petri plates, allowed to solidify and dried. Wells (4.6 mm in diameter) were then made in the seeded plates. 10 µl volumes of cell-free supernatant from overnight nisin derivative producing cultures or resuspended purified peptides were then added to the wells and the plates incubated at 30°C (L. lactis) or 37°C (Gram positive strains) or RT (Gram negative strains) for 3 hours. Polymyxin B (Sigma Aldrich) was used at a concentration of 20 µg/ml. The plates were then overlaid with 15 mls of autoclaved double strength GM17 (L. lactis) or LB (Gram negatives) agarose (1% w/v agarose) overlay medium precooled to 50°C. The plates were then incubated overnight at the relevant temperature.
# E. coli 0157-H7 = assay: Agarose gel diffusion assay, purified peptide; format: cell-based; settings: purified peptide 60 µM
# Procedure: as §1
# C. sakazakii DPC 6440 [2] = assay: Agarose gel diffusion assay, purified peptide; format: cell-based, Cronobacter sakazakii; settings: purified peptide 60 µM
# Procedure: as §1
# C. sakazakii DPC 6440 [3] = assay: Broth MIC, Gram negative; format: cell-based, Cronobacter sakazakii; settings: cells washed in 10 mM SPB pH 7.4, 2×10^5 CFU/mL, 2 h RT with peptide, then double strength LB, RT overnight, mean of triplicate assays
# Procedure: Minimum inhibitory concentration determinations for Gram negative strains were carried out in triplicate in 96 well microtitre plates. Briefly, bacteria (E. coli, C. sakazakii and Salmonella) grown to mid-logarithmic phase were harvested by centrifugation, washed with 10 mM SPB at pH 7.4, and diluted to 2×10^5 colony-forming units (CFU)/mL in SPB. Nisin and nisin derivative peptides were resuspended in sterile HPLC water and 50 µL aliquots were added to wells containing 50 µL of 2×10^5 CFU of bacteria. Plates were incubated at RT for two hours with agitation. Double strength Luria–Bertani (LB) broth (100 µL) was added and the plates were incubated at RT overnight, the MIC was taken as the lowest concentration at which growth was inhibited.
# [4] = tested on: hVISA 32679 (heterogenous Vancomycin-intermediate S. aureus); assay: Broth MIC, Gram positive; format: cell-based; settings: broth microtitre, BSA pre-treated plates, 10^5 cfu ml^−1, 2-fold dilutions from 5 µM, 16 h 37°C, purified peptide, mean of triplicate assays
# [5] = tested on: ST 530 (Methicillin resistant S. aureus); assay: Broth MIC, Gram positive; format: cell-based; settings: broth microtitre, BSA pre-treated plates, 10^5 cfu ml^−1, 2-fold dilutions from 2.5 µM, 16 h 37°C, purified peptide, mean of triplicate assays
# Procedure, shortened: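 Triplicate broth microdilution in wells pre-coated with 1% (w/v) BSA in PBS (37°C, 30 min), inoculated at 10^5 cfu ml^−1 from OD600 ∼0.5 subcultures. Nisin peptides were 2-fold serially diluted from 500 nM (L. lactis), 7.5 µM (L. monocytogenes) or 10 µM (B. cereus).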
# S. mitis UCC5000 = assay: Broth MIC, Gram positive; format: cell-based, Streptococcus mitis; settings: broth microtitre, BSA pre-treated plates, 10^5 cfu ml^−1, 2-fold dilutions from 10 µM, 16 h 37°C, purified peptide, mean of triplicate assays
# Procedure: Minimum inhibitory concentration determinations for Gram positive organisms were carried out in triplicate in microtitre plates (Sarstedt). 96 well microtitre plates were pre-treated with bovine serum albumin (BSA) prior to addition of the peptides. Briefly, to each well of the microtitre plate 200 µL of phosphate buffered saline (PBS) containing 1% (w/v) bovine serum albumin (PBS/BSA) was added and incubated at 37°C for 30 min. The wells were washed with 200 µL PBS and allowed to dry. Target strains were grown overnight in the appropriate conditions and medium, subcultured into fresh broth and allowed to grow to an OD600 of ∼0.5, diluted to a final concentration of 10^5 cfu ml^−1 in a volume of 0.2 ml. Wild type nisin and nisin mutant peptides were adjusted to a 10 µM (S. mitis, B. cereus), 7.5 µM (L. monocytogenes), 5 µM (hVISA) 2.5 µM (MRSA, E. durans), or 500 nM (L. lactis strains) starting concentration and 2-fold serial dilutions of each peptide were added to the target strain.
# C. sakazakii DPC 6440 [6] = assay: Agarose gel diffusion assay, peptide alone or with polymyxin B nonapeptide (PMBN); format: cell-based, Cronobacter sakazakii
# Procedure: as §1
# Polymyxin B (PMB) is a cyclic lipodecapaptide produced by bacteria of the genus Paenibacillus that acts primarily on the Gram negative cell wall, leading to rapid permeability changes in the cytoplasmic membrane and ultimately cell death. […] To that end, C. sakazakii DPC 6440 cells were treated with purified nisin A, S29G and S29A peptides alone (30 µM) or in combination with PMBN at a concentration of 20 µg/ml and determined the antimicrobial activity by agarose gel diffusion assay (Fig. 5). […] When used in combination with PMBN, a substantial synergistic effect was clearly evident (Fig. 5) but in this instance no significant difference in efficacy was observed between nisin A or either of the derivatives S29A or S29G.
# E. coli = assay: Kill curve analysis; format: cell-based; settings: 33 mg/L purified peptide, 2×10^5 cfu ml^−1, 37°C for 1 hour
# Procedure: Using purified peptide in each case, 10 mM sodium phosphate buffer washed C. sakazakii, E. coli and Salmonella strains were diluted to a final concentration of 2×10^5 cfu ml^−1 and were exposed to nisin A, S29G and S29A at a concentration of 33 mg/L. Following incubation at 37°C for 1 hour, bacterial growth was monitored through plate counts.
substance,measurement,setting,value
"S29G: bioengineered nisin A derivative with a serine to glycine change at position 29 (ITSISLCTPGCKTGALMGCNMKTATCHCGIHVSK; thioether (positions not given here); not fully specified (residues 2, 5, 33, bridges); UniProt P13068 24-57, looked up, variant S29G)","Zone of inhibition, agarose gel diffusion","[1]; Salmonella Typhimurium UK1, mean of triplicate assays",10.94±0.24 mm
same,Zone as % wt,"[1]; Salmonella Typhimurium UK1, relative to nisin A",111 % wt
same,"Zone of inhibition, agarose gel diffusion","E. coli 0157-H7; E. coli 0157-H7, mean of triplicate assays",11.10±0.05 mm
same,Zone as % wt,"E. coli 0157-H7; E. coli 0157-H7, relative to nisin A",113 % wt
same,"Zone of inhibition, agarose gel diffusion","C. sakazakii DPC 6440 [2]; C. sakazakii DPC 6440, mean of triplicate assays",10.79±0.16 mm
same,Zone as % wt,"C. sakazakii DPC 6440 [2]; C. sakazakii DPC 6440, relative to nisin A",110 % wt
same,MIC,C. sakazakii DPC 6440 [3],6.28 mg/L and 1.875 µM
same,MIC,[4],2 mg/L and 0.625 µM
same,MIC,[5],0.26 mg/L and 0.078 µM
same,MIC,S. mitis UCC5000,8.38 mg/L and 2.5 µM
same,"Total area of inhibitory zone, peptide alone",C. sakazakii DPC 6440 [6]; purified peptide 30 µM alone,48.2±0.7 mm^2
same,"Total area of inhibitory zone, peptide + PMBN",C. sakazakii DPC 6440 [6]; purified peptide 30 µM in combination with polymyxin B nonapeptide (PMBN) 20 µg/ml,118.6±5.0 mm^2
same,Killing compared with nisin A (plate counts),E. coli,greater activity than wildtype nisin A

# From publication PMC3466204 (PLoS ONE, 2012)
